± gives the uncertainty stated by the source.
Assay: xn = mol fraction of the nth substance listed
Conditions: 101.33 kPa

CCOCCO + CS(C)=O
viscosity [mPa·s]
Conditions	298.15 K	303.15 K	308.15 K	313.15 K	318.15 K
x1 = 0.0436	2 ± 0.08	1.8 ± 0.07	1.66 ± 0.07	1.52 ± 0.06	1.38 ± 0.06
x1 = 0.0879	2 ± 0.08	1.8 ± 0.07	1.66 ± 0.07	1.53 ± 0.06	1.38 ± 0.06
x1 = 0.1327	2 ± 0.08	1.81 ± 0.07	1.67 ± 0.07	1.53 ± 0.06	1.38 ± 0.06
x1 = 0.1781	2.01 ± 0.08	1.81 ± 0.07	1.67 ± 0.07	1.53 ± 0.06	1.38 ± 0.06
x1 = 0.2242	2.01 ± 0.08	1.82 ± 0.07	1.68 ± 0.07	1.54 ± 0.06	1.38 ± 0.06
x1 = 0.2709	2.02 ± 0.08	1.82 ± 0.07	1.68 ± 0.07	1.54 ± 0.06	1.38 ± 0.06
x1 = 0.3183	2.02 ± 0.08	1.82 ± 0.07	1.68 ± 0.07	1.54 ± 0.06	1.38 ± 0.06
x1 = 0.3663	2.03 ± 0.08	1.83 ± 0.07	1.69 ± 0.07	1.54 ± 0.06	1.38 ± 0.06
x1 = 0.415	2.02 ± 0.08	1.83 ± 0.07	1.68 ± 0.07	1.54 ± 0.06	1.38 ± 0.06
x1 = 0.4644	2.02 ± 0.08	1.82 ± 0.07	1.68 ± 0.07	1.54 ± 0.06	1.38 ± 0.06
x1 = 0.5145	2.02 ± 0.08	1.82 ± 0.07	1.68 ± 0.07	1.54 ± 0.06	1.37 ± 0.06
x1 = 0.5653	2.01 ± 0.08	1.81 ± 0.07	1.67 ± 0.07	1.53 ± 0.06	1.37 ± 0.06
x1 = 0.6169	2.01 ± 0.08	1.81 ± 0.07	1.67 ± 0.07	1.52 ± 0.06	1.36 ± 0.06
x1 = 0.6692	1.99 ± 0.08	1.79 ± 0.07	1.65 ± 0.07	1.51 ± 0.06	1.35 ± 0.06
x1 = 0.7223	1.98 ± 0.08	1.78 ± 0.07	1.64 ± 0.07	1.49 ± 0.06	1.33 ± 0.05
x1 = 0.7762	1.96 ± 0.08	1.75 ± 0.07	1.62 ± 0.07	1.48 ± 0.06	1.31 ± 0.05
x1 = 0.8309	1.94 ± 0.08	1.73 ± 0.07	1.59 ± 0.06	1.45 ± 0.06	1.29 ± 0.05
x1 = 0.8864	1.92 ± 0.08	1.71 ± 0.07	1.56 ± 0.06	1.43 ± 0.06	1.27 ± 0.05
x1 = 0.9428	1.88 ± 0.08	1.67 ± 0.07	1.53 ± 0.06	1.39 ± 0.06	1.24 ± 0.05

Source: the CheMixHub viscosity set
